# Patent publication US10000791B2, “Measurement method for human pancreatic lipase activity” (ASAHI KASEI PHARMA CORPORATION, priority 2013, dated 2018)
# Columns and labels:
# Format in all cases: biochemical
# human pancreatic lipase [1] = assay: lipase activity measured in control, normal and heparin-administered samples with each reagent (1,2-dioleoyl glycerol, UV method; Liquitech Lipase Color II for verification); details: NaDCA pH 8.15, other bile salts pH 7.0
# Procedure: (§1) A mixture of the substrate stock solution and the R-1 in a proportion of 1:2 was used as a first reagent. The R-2 was directly used as a second reagent. As a sample, pooled serum or a control sample (a control containing a pancreatic lipase) was used. A proportion in amount among the sample, the first reagent and the second reagent was set as sample:first reagent:second reagent of 0.01 ml:0.18 ml:0.06 ml. The sample was added to the first reagent, the resultant mixture was heated at 37° C. for 5 minutes, the second reagent was added thereto, and a change rate of an absorbance at 340 nm based on reduced NADP was obtained at 37° C. from 3 minutes after the addition of the second reagent to 4 minutes after the addition, and then, the lipase activity was calculated by using a molecular extinction coefficient of 6300 L/mol·cm of the reduced NADP. Besides, as a sample blank, saline was used instead of a sample, an absorbance was measured by using the reagent for sample blank obtained by removing MGLPII from the second reagent, and a difference between the thus measured two values was defined as an enzyme activity value. For the measurement, Hitachi automatic analyzer Model H7170 or H7080 was used.
# (§2) Similarly to Example 1, a mixture of the substrate stock solution and the R-1 in a proportion of 1:2 was used as a first reagent. Except for this, the measurement was performed in the same manner as in Example 1.
# A commercially available reagent for a resorufin colorimetric method, “Liquitech Lipase Color II” manufactured by Roche Diagnostics using 1,2-O-dilauryl-rac-glycerol-3-glutaric acid-(6-methylresorufin)ester (DGGR), which is regarded not to be influenced by a non-pancreatic lipase, such as a lipoprotein lipase or a hepatic lipase, appearing in blood due to administration of heparin, was used for verifying the effect of the present example. “Liquitech Lipase Color II” was used in accordance with the package insert, and a special calibrator was used for calculating the enzyme activity. […] The concentration of each bile acid used in the present example was set to be the same as that in the comparative example.
# As samples, a control, non-heparin-administered samples (normal samples), and heparin-administered samples were used.
# The compositions of the reagents were the same as those of Example 2. As a comparative example, NaDCA (in a concentration of 40 mmol/L in the R-1) was used as the bile acid, and the reaction solution was adjusted to pH 8.15 (by the Bicine buffer) for measuring a heparin-administered sample.
# It is noted that CRM-001b containing a human pancreatic recombinant lipase dissolved not in distilled water but in a pooled serum was used as the calibrator to calculate the lipase activity.
# As a bile acid of the present example and a reference example, NaTDCA was selected, and the pH dependence with the pH of a reaction solution changed in a range of 6.2 to 7.6 was examined. It is noted that a case of pH 7.6 was used as the reference example. An MES buffer was used for adjusting pH to 6.2 and 6.4, and the BES buffer was used for adjusting the other pHs. As samples, (six) control samples (controls each containing a pancreatic lipase) and (nine) heparin-administered samples were used. As a comparative example, NaDCA (in a concentration of 40 mmol/L in the R-1) was used as the bile acid, and a reaction solution having pH 8.15 (the Bicine buffer) was used. Besides, “Liquitech Lipase Color II” manufactured by Roche Diagnostics was used for verifying the effect of the present example.
# human pancreatic lipase [2] = assay: pH dependence of human pancreatic lipase activity in the presence of bile acids (diglyceride substrate, UV method); details: human pooled serum; pH changed between 7.4 and 8.4 (Example 12)
# Target sequence in this assay (P16233 17-465): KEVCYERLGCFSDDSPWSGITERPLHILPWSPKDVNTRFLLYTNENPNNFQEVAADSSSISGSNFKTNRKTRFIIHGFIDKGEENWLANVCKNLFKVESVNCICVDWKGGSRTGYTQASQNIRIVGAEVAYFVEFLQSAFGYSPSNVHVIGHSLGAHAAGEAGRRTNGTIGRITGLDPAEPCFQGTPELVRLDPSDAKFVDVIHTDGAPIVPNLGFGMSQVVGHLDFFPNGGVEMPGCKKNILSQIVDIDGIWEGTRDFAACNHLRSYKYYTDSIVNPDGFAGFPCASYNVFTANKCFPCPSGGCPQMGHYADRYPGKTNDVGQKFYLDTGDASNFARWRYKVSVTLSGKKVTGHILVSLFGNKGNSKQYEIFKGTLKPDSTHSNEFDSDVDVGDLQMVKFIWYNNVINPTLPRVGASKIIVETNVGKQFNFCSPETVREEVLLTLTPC
# Target sequence in this assay (P02703 23-112 partner): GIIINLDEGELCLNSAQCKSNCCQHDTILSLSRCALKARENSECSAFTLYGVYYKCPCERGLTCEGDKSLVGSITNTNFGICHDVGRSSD
# human pancreatic lipase [3] = assay: as above; details: pooled serum; non-conjugated bile acid singly, 24 mmol/L in R-1; pH 7.2-8.5
# Procedure: After weighing 1,2-dioleoyl glycerol (DODG) (manufactured by Nippon Fine Chemical Co., Ltd.) to attain a concentration of 9.32 mmol/L when dissolved, 1% polyoxyethylene (10) nonyl phenyl ether (NPE) (manufactured by Wako Pure Chemical Industries Ltd.) containing 1.66 mmol/L of MES (manufactured by Dojindo Laboratories) was added thereto to be dissolved therein by stirring at 37° C. for 2 hours, and the resultant was allowed to stand still in ice for 2 hours or more. The thus obtained solution was used as a substrate original liquid.
# The above-described diglyceride original liquid was used for preparing a “substrate stock solution” having the following composition:
# A “first reaction solution (R-1)” having the following composition was prepared:
# A “second reaction solution (R-2)” having the following composition was prepared:
# A “second reaction solution (R-2) for sample blank” having the following composition was prepared:
# as §1
# Target sequence in this assay (P16233 17-465): as the sequence (P16233 17-465) above
# Target sequence in this assay (P02703 23-112 partner): as the sequence (P02703 23-112 partner) above
# As a conjugated bile acid to be added to the R-1, sodium taurodeoxycholate (NaTDCA), sodium glycodeoxycholate (NaGDCA), sodium glycochenodeoxycholate (NaGCDCA), sodium taurochenodeoxycholate (NaTCDCA), sodium glycocholate (NaGCA), sodium taurocholate (NaTCA) and sodium tauroursodeoxycholate (NaTUDCA) all in a concentration of 40 mmol/L were selected, the R-1 was adjusted, by using BES (manufactured by Dojindo Laboratories) respectively to pH 6.8, 7.0, 7.2, 7.4, 7.8, and 8.0, and the human pancreatic lipase activity was measured by using these. The pH of the R-2 was adjusted to be equal to that of the R-1.
# It is noted that the concentration of each non-conjugated bile acid was set to be 24 mmol/L in the R-1. Besides, BES was used for adjusting pH to 7.2, 7.6, 7.8 and 8.0, and Bicine was used for adjusting pH to 8.2 and 8.5.
# as §2
# Besides, NaTCA was also combined with a conjugated bile acid, NaTDCA, to examine the pH for giving a maximum value of the human pancreatic lipase activity (the apparent optimum pH). It is noted that a BES buffer was used for adjusting pH to 6.9, 7.2 and 7.7, and a Bicine buffer was used for adjusting pH to 7.95 and 8.2. In each of the combinations of NaGCA/NaDCA, NaTCA/NaDCA, NaTUDCA/NaDCA and NaTCA/NaTDCA, the concentration of each bile acid was set to 20 mmol/L in the R-1. With respect to the combination of NaTCA and NaTDCA, a concentration of 40 mmol/L of NaTDCA was used as a control.
# The compositions of the reagents and the measurement operation were the same as those of Example 2.
substance,measurement,setting,value
sodium deoxycholate [NaDCA],lipase activity (Table 1),human pancreatic lipase [1]; Normal sample 1,39.1 U/L
same,lipase activity (Table 1),human pancreatic lipase [1]; Normal sample 2,95.0 U/L
same,lipase activity (Table 1),human pancreatic lipase [1]; Normal sample 3,46.6 U/L
same,lipase activity (Table 1),human pancreatic lipase [1]; Normal sample 4,43.5 U/L
same,lipase activity (Table 1),human pancreatic lipase [1]; Normal sample 5,40.7 U/L
same,lipase activity (Table 1),human pancreatic lipase [1]; sample Heparin 1,76.8 U/L
same,lipase activity (Table 1),human pancreatic lipase [1]; sample Heparin 2,86.7 U/L
same,lipase activity (Table 1),human pancreatic lipase [1]; sample Heparin 3,112.9 U/L
same,lipase activity (Table 1),human pancreatic lipase [1]; sample Heparin 4,101.4 U/L
same,lipase activity (Table 1),human pancreatic lipase [1]; sample Heparin 5,68.5 U/L
same,lipase activity (Table 1),human pancreatic lipase [1]; sample Heparin 6,69.2 U/L
same,lipase activity (Table 1),human pancreatic lipase [1]; sample Heparin 7,138.3 U/L
same,lipase activity (Table 1),human pancreatic lipase [1]; sample Heparin 8,126.0 U/L
same,lipase activity (Table 1),human pancreatic lipase [1]; sample Heparin 9,168.8 U/L
same,lipase activity (Table 1),human pancreatic lipase [1]; sample PRECINORM,51.0 U/L
same,lipase activity (Table 1),human pancreatic lipase [1]; sample PRECIPATH,128.0 U/L
same,pH for giving a maximum value of the human pancreatic lipase activity,human pancreatic lipase [2],about 8.2
same,pH for giving a maximum value of the activity (apparent optimum pH),human pancreatic lipase [3],about 8.2
